The target of experiment [1] is T1, ECD of CaSR (Homo sapiens, UniProt P41180).
T1 construct: made in house; host or cells: HEK293S (GnTI-) suspension culture, secreted
T1 sequence (P41180 20-612): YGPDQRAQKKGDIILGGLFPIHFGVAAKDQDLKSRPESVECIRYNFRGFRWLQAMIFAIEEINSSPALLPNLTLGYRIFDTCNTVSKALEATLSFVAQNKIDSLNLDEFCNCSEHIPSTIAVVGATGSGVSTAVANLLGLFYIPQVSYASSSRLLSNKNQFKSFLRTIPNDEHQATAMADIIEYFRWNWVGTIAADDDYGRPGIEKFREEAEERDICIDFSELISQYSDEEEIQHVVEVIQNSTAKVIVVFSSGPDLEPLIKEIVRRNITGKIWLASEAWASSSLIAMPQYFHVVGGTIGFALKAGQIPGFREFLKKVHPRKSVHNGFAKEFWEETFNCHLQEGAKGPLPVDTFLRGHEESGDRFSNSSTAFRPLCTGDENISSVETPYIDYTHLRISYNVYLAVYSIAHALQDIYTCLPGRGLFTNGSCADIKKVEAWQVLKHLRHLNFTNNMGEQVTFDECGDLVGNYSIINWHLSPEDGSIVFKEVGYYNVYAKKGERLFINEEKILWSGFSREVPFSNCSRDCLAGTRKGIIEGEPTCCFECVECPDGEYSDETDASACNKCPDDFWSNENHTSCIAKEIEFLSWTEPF
In words: Ca2+ binding to the ECD by Trp fluorescence signal change. Particulars: for Kd: read-out: Kd, 2-phase Hill equation.

In experiment [2] the target is T2, CaSR (Bos taurus, UniProt P35384).
T2 construct: host or cells: X. laevis oocytes
T2 sequence (P35384 20-1085): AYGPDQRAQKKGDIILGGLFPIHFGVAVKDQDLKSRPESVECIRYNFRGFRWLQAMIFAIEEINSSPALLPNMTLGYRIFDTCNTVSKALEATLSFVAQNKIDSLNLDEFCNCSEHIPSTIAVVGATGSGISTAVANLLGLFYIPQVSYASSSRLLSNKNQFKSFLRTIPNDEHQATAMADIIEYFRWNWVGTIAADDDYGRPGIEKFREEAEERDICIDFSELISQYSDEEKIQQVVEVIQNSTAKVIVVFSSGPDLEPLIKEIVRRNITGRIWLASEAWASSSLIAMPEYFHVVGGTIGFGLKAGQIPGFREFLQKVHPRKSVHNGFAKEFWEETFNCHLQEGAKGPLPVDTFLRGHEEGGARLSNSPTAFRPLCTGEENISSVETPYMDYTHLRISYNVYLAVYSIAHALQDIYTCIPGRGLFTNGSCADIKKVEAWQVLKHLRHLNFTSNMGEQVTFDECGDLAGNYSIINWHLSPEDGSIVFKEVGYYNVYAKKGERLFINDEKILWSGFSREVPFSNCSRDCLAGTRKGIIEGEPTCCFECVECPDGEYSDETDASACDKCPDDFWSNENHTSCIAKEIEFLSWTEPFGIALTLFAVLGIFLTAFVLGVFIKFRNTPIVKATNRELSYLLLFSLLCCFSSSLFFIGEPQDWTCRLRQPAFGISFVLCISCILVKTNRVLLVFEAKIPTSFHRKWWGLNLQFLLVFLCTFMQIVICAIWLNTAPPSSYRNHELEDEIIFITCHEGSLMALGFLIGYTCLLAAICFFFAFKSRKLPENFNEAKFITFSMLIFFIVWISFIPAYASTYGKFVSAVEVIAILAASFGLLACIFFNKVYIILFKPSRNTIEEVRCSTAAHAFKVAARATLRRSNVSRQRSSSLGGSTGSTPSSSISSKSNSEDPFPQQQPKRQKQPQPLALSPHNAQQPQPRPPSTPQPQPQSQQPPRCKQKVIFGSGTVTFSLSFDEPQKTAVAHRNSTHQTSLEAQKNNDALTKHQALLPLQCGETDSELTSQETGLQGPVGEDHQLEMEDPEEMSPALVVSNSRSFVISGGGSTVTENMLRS
The following applies: X. laevis oocytes; cited from earlier work.

The target in experiment [3] is T3, CaSR (Homo sapiens, UniProt P41180).
T3 sequence (P41180 20-1078): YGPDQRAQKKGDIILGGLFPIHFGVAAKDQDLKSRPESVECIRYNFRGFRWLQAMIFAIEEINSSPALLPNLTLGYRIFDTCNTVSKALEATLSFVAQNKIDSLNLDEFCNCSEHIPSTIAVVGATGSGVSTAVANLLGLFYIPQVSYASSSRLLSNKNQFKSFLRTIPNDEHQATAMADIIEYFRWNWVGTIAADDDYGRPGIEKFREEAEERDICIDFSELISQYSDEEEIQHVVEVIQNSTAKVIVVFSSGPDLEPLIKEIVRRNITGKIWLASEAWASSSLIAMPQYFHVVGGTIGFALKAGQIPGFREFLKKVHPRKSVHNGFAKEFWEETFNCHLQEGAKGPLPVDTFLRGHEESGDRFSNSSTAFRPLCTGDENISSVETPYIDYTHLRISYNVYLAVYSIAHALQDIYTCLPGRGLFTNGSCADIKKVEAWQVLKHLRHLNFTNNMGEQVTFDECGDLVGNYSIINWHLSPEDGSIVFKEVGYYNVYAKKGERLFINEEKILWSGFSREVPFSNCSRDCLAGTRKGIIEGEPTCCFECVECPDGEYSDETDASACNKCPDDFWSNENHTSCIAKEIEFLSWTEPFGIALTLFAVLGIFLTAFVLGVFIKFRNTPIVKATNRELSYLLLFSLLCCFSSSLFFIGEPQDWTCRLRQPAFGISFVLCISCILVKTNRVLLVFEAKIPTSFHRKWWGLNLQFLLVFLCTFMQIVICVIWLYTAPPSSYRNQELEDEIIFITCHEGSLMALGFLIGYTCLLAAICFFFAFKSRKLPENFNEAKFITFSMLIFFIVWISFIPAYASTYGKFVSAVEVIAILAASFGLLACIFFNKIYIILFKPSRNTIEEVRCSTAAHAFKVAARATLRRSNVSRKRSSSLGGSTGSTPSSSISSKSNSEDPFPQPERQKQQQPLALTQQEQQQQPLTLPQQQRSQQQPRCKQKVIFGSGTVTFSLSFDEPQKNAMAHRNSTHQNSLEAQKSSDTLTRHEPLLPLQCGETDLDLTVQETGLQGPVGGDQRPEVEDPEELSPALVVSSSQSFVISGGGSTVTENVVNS
The arrangement: host or cells: HEK cells, transient. The following applies: HEK cells, in the presence of 150 mM NaCl; read-out: EC50 for intracellular calcium responses; cited from earlier work. In general terms: Calcium flux is commonly read through the fluorescence of an indicator in the cells.

Experiment [4] has as its target T3, CaSR. Briefly: ERK1/2 phosphorylation in 5001 cells stably expressing hCaSR. The experiment is classed as cell-based. The arrangement: expressed in transfected cells. As to the method: The 5001 cell line stably expressing hCaSR was starved in serum-free DMEM medium supplemented with 0.2% (w/v) BSA overnight, followed by washing 3-times with HBSS and a subsequent 10 minute HBSS incubation after 12 hours. To induce ERK1/2 phosphorylation, varying concentrations of [Mg^2+]o (0-50 mM) or [Ca^2+]o (0-30 mM) with or without 0.5 mM TNCA were added to cells and incubated for 10 minutes at 37° C. The cells were then lysed with Pierce RIPA buffer (ThermoFisher Scientific). Total protein concentration was measured using the BioRad assay. Lysates containing 100 μg of total protein were loaded onto 4-20% gradient SDS-PAGE gels for separation. After electrophoresis, proteins on the gel were transferred to nitrocellulose membranes and further analyzed by western blotting. Anti-phospho-p44/42 ERK (1:1000 dilution) and anti-p44/42 (1:2000) polyclonal antibodies were utilized as probes to detect the phosphorylated ERK1/2 and total ERK1/2 respectively. A chemiluminescent detection method (AP Conjugate Substrate Kit, Bio-Rad) was applied to detect phosphor-ERK1/2 and total-ERK1/2. The respective bands on western blots were evaluated by densitometry. The EC50 of [Mg^2+]o- or [Ca^2+]o-dependent responses were obtained by fitting the [Mg^2+]o or [Ca^2+]o concentration-response curves with the Hill equation (Eq.1).

Experiment [5] has as its target T3, CaSR. In words: [Ca^2+]i signaling (Fura-2) evoked by [Mg^2+]o/[Ca^2+]o in CaSR-expressing HEK293 cells (5001 cell population assay). The arrangement: expressed in transfected cells. The experiment is classed as cell-based. As to the method:
Measurement of intracellular free Ca^2+ was assessed as described by Huang, et al^33. Briefly, wild type CaSR, or its mutants, were transiently transfected into HEK293 cells grown on coverslips and cultured for 48 h. The cells were subsequently loaded for 15 min using 2 μM Fura-2 AM in 2 mL physiological saline buffer (10 mM HEPES, 140 mM NaCl, 5 mM KCl, 1.0 mM MgCl2 and pH 7.4). The coverslips were mounted in a bath chamber on the stage of a Leica DM6000 fluorescence microscope. The cells were alternately illuminated with 340 or 380 nm light, and the fluorescence at an emission wavelength 510 nm was recorded in real time as the [Ca^2+]o and/or [Mg^2+]o was increased in a stepwise manner in the presence or absence of 0.25 mM TNCA in buffer (10 mM HEPES, 155 mM NaCl, 5 mM KCl, 2 mM NaH2PO4, 0.5 mM MgCl2 and pH 7.4). The ratio of the emitted fluorescence intensities resulting from excitation at both wavelengths was utilized as a surrogate for changes in [Ca^2+]i and was further plotted and analyzed as a function of [Ca^2+]o. All experiments were performed at room temperature. The signals from 20 to 100 single cells were recorded for each measurement. Oscillations were identified as three successive fluctuations in [Ca^2+]i after the initial peak. Determination of the Effect of TNCA on Mg^2+-Evoked [Ca^2+]i Signaling by Stimulation of CaSR in Cell Populations.
Changes in the intracellular Ca^2+ concentration [Ca^2+ ]i elicited by extracellular Mg^2+ ([Mg^2+]o) in a population of cells were measured by fluorimetry as described previously^33. A cell line stably expressing CaSR (designated the “5001 cell line”) was seeded on 13.5×20-mm coverslips and cultured in DMEM. After reaching 95% confluence, cells were washed three times using loading buffer (20 mM HEPES [pH 7.4], 125 mM NaCl, 5 mM KCl, 1.25 mM CaCl2, 1 mM MgCl2, 1 mM NaH2PO4, 1% glucose, and 1% BSA) and subsequently incubated with 4 μM Fura-2 and 4 μM pluronic F127 for 20 minutes at 37° C. to enable sufficient dye loading in the same buffer. After removing the excess Fura-2, coverslips with cells were diagonally positioned in a quartz cuvette filled with 3 ml of experimental buffer (125 mM NaCl, 5 mM KCl, 0.5 mM CaCl2, 0.5 mM MgCl2, 1% glucose, and 1% BSA). Measurements of Fura-2 fluorescence at 510 nm when excited at 340 or 380 nm were performed on a QM1 fluorescence spectrophotometer (PTI). The emission ratio of 340/380 was calculated and used to reflect the changes in [Ca^2+]i when different concentrations of [Mg^2+]o were applied to the cells.
To examine the co-activation of CaSR by TNCA and [Mg^2+]o or [Ca^2+]o, different concentrations of TNCA were placed in the experimental buffer with a fixed concentration of [Ca^2+]o and varying concentrations of [Mg^2+]o, or vice versa, as described in the results section. The effects of other ligands were analyzed by comparing the changes in [Ca^2+ ]i produced by [Mg^2+]o alone or by co-application of Mg^2+ with other ligands. The EC50 of [Mg^2+]o obtained during incubation with various concentrations of TNCA is compared with that observed in the presence of [Mg^2+]o alone. The EC50 changes were plotted as a function of TNCA concentration and the curve was fit to the Hill equation. The activation of CaSR by the TNCA, functioning as a co-agonist with [Mg^2+]o, is indicated by the increasingly leftward-shifted EC50 for [Mg^2+]o as the concentration of TNCA increases (FIG. 6).

Consider two molecules from patent US10639299B2, “Calcium sensing receptors, ligands, compositions, and methods of use” (Georgia State University Research Foundation, Inc., priority 2016, dated 2020).

Where two headings read alike, the source gives them in different places.

Consider `[Ca+2]` [Ca^2+, calcium], for which the entries for the “Hill number, 2-phase Hill equation” value in experiment [1] (first phase) and in experiment [1] (second phase) were 1.1 and 3.8, respectively. For the same molecule, the Kd worked out at 900 µM in experiment [1] (first phase) and 10000 µM in experiment [1] (second phase). The half-maximal effective concentration (EC50) in experiment [2] was 3000 µM; in experiment [3] it was 3000 to 5000 µM.

Consider `O=C(O)[C@@H]1Cc2c([nH]c3ccccc23)CN1` [TNCA, L-1,2,3,4-tetrahydronorharman-3-carboxylic acid], for which the “co-agonism with [Mg^2+]o in activating ERK1/2 phosphorylation” value in experiment [4] is given as “strong co-agonist”. The “co-agonism with [Mg^2+]o in activating [Ca^2+]i oscillations” value in experiment [5] was “strong co-agonist”. In experiment [5] (WT and mutant CaSRs), the “potency relative to Phe in reducing the EC50 for [Mg^2+]o or [Ca^2+]o activation of [Ca^2+]i signaling” value is on record as “greater than 1000 fold”. For the same molecule, the half-maximal effective concentration (EC50) in experiment [5] (determined indirectly through the EC50 change of [Mg^2+]o at different TNCA concentrations, 0.5 mM [Ca^2+]o, read-out: apparent EC50 of TNCA as co-agonist) is ≥ 2 µM. Also, the “activation of the receptor by the exogenous compound alone” value in experiment [5] (without metal agonist) is reported as “cannot activate the receptor”.

A word on the Kd: it is the free concentration of one partner at which half of the binding sites on the other are occupied at equilibrium, for simple one-to-one binding. One may read the EC50 as the concentration that produces a half-maximal response.
